According to US9682054B2, “Medium-chain length fatty acids, glycerides and analogues as stimulators of erythropoiesis” (PROMETIC PHARMA SMT LIMITED, priority 2003, dated 2017):
“Also recorded” adds a separate entry of the source. Read-outs that look alike come from different tables or passages of the source.

Tests used:
[1] = test system: bone marrow from the femur; settings: for Gross pathological observations: Bone Marrow Color: femur at day +5; for appearance of the femur (bone marrow): immunosuppression induced by 5-fluorouracil (5-FU) 80 mg/kg i.v., compared with the cyclophosphamide results (red femur)
Method: Female C57BL/6 mice, 6 to 8 week old, were immunosuppressed by treatment with 200 mg/kg of cyclophosphamide (CY) or 80 mg/kg 5-fluorouracil (5-FU) administered intravenously at day 0. To examine the immunoprotective effect of MCT or other compounds, mice were pre-treated orally at day −3, −2 and −1 at day 0 with the compound. Mice were sacrificed at day +5 by cardiac puncture and cervical dislocation. Then, a gross pathological observation of the femurs (as a source of bone marrow cells) was recorded.

spleen red cell = assay: Chemoprotection study: spleen red cell count in cyclophosphamide treated mice; assay type: in vivo, C57BL/6 mice
From the text: Effect of tricaprin, capric acid and sodium caprate on in vivo induction of immune cell proliferation or protection was undertaken following the protocol described in example 1. After the sacrifice, tissues were crushed in PBS buffer and cells were counted on a hemacytometer. Effect of oral and intravenous administration of sodium caprate on in vivo induction of immune cell proliferation or protection was undertaken following the protocol described in example 1. After sacrifice, tissues were crushed in PBS buffer and cells were counted on a hemacytometer.

human bone marrow cells = assay: In vitro human bone marrow cell proliferation ([3H]-thymidine incorporation); assay type: cell-based
Method: Bone marrow cells were obtained from the sternum of cancer patients. Cells were washed with PBS and resuspended at a concentration of 2×10^6 cells per ml. Cells were cultured in RPMI/FBS media in the presence or the absence of tricaprin or tricaprylin for 48 and 72 hours at 37° C. After incubation, cells were pulsed with 1 μCi of [^3H]-thymidine for 6 hours. Plates were harvested on a Tomteck and counted on a Microbeta β-counter. Incorporation of [^3H]-thymidine in the DNA is a direct indication of the cell proliferation.

[2] = test system: human hematopoietic progenitors; assay: In vitro human bone marrow colony forming unit (CFU) formation assay; assay type: cell-based; settings: for BFU-E / CFU-GEMM / CFU-GM / TOTAL CFC (Colony Forming Cells): tricaprin 10%; for increase in BFU-E colonies formation / increase in the number of CFU-GEMM: versus control
Method: Bone marrow cells were obtained from the sternum of various cancer patients. Cells were washed with PBS and resuspended at a concentration of 2×10^6 cells per ml. Cells were cultured in RPMI/FBS or Myelocult (Stem cell technology, Vancouver)/FBS media in the presence or the absence of tricaprin for 5 days at 37° C. After incubation, cells were harvested, washed and counted. Based on the viable cells count, the cells were resuspended at a concentration of 5×10^5 cells per ml in IMDM media supplemented with 2% FBS. From these cells, four replicates of 2.5×10^4 cells per dish were plated in Methocult medium so that a colony forming unit (CFU) formation assay could be undertaken. CFU-GM, CFU-GEMM and BFU-E were recorded after 14 to 16 days culture.

bone marrow red cell = assay: Chemoprotection study: bone marrow red cell count in cyclophosphamide treated mice, comparison with GM-CSF; assay type: in vivo, C57BL/6 mice
From the text: (§1) Effect of oral and intravenous administration of sodium caprate and GM-CSF on in vivo induction of immune cell proliferation or protection was undertaken following the protocol described in example 1. After sacrifice, tissues were crushed in PBS buffer and cells were counted on a hemacytometer.

peripheral blood cell = assay: Chemoprotection study: number of peripheral blood cell; assay type: in vivo, C57BL/6 mice; settings: sodium caprate used alone
From the text: as §1

bone marrow cells = assay: Anemia model: ex vivo bone marrow colony forming unit (CFU) formation assay; assay type: in vivo, BALB/c mice; settings: i.v. pre-treatment
Method: To examine the immunoprotective or immunorestorative effect of sodium caprate in an anemia model, BALB/c mice were pre-treated intravenously at day −3, −2 and −1 with compound. Anemia was induced by treatment with 60 mg/kg phenylhydrazine administered intraperitonealy at day 0 to female BALB/c mice, 6 to 8 week old. Mice were sacrificed at day +6 by cardiac puncture and cervical dislocation. Then, bone marrow cells were obtained from femur. Cells were flushed and washed with PBS. Based on the viable cells count, the cells were resuspended at a concentration of 5×10^5 cells per ml in IMDM media supplemented with 2% FBS. From these cells, two replicates of 3×10^4 cells per dish were plated in Methocult medium so that a colony forming unit (CFU) formation assay could be undertaken. CFU-E and BFU-E were recorded after 2 to 3 days culture. CFU-GM and CFU-GEMM were recorded after 14 to 16 days culture.

[3] = cyclophosphamide (CY) 200 mg/kg i.v. day 0 plus compound given orally as pre-treatment
[4] = Myelocult/FBS medium, Experiment 1
[5] = Myelocult/FBS medium, Experiment 2
[6] = single agent (GM-CSF at high concentration, 1 μg/kg)
[7] = normal mice, bone marrow cells in Methocult
[8] = phenylhydrazine-induced anemia mice (60 mg/kg i.p.)

For `CCCCCCCCCC(=O)OCC(COC(=O)CCCCCCCCC)OC(=O)CCCCCCCCC` [tricaprin], the “Gross pathological observations: Bone Marrow Color” value (from here on “Gross pathological observations”) [1, 3] was “Red”, the “appearance of the femur (bone marrow)” value [1] was “same results” and the “spleen red cell count” value (spleen red cell; oral pre-treatment) was “significant increase”. The “bone marrow proliferation in combination with erythropoietin (EPO)” value (from here on “bone marrow proliferation in combination”) (human bone marrow cells; 48 hours) was “additive”, the “bone marrow proliferation in combination” value (human bone marrow cells; 72 hours) was “synergistic” and the BFU-E [2, 4] was 380. For the same molecule, the CFU-GEMM [2, 4] was 4.75, the CFU-GM [2, 4] was 17 and the “TOTAL CFC (Colony Forming Cells)” value [2, 4] was 401. For the same molecule, the BFU-E [2, 5] was 268, the CFU-GEMM [2, 5] was 4.25 and the CFU-GM [2, 5] was 34. The “TOTAL CFC (Colony Forming Cells)” value [2, 5] was 306, the “increase in BFU-E colonies formation” value ([2]; Myelocult/FBS medium) was “up to 6 times” and the “increase in the number of CFU-GEMM” value ([2]; Myelocult/FBS medium) was “up to 2 times”. For the same molecule, the BFU-E ([2]; RPMI/FBS medium, Experiment 1) was 130, the CFU-GEMM ([2]; RPMI/FBS medium, Experiment 1) was 4.75 and the CFU-GM ([2]; RPMI/FBS medium, Experiment 1) was 26. For the same molecule, the “TOTAL CFC (Colony Forming Cells)” value ([2]; RPMI/FBS medium, Experiment 1) was 161, the BFU-E ([2]; RPMI/FBS medium, Experiment 2) was 121 and the CFU-GEMM ([2]; RPMI/FBS medium, Experiment 2) was 4. For the same molecule, the CFU-GM ([2]; RPMI/FBS medium, Experiment 2) was 25, the “TOTAL CFC (Colony Forming Cells)” value ([2]; RPMI/FBS medium, Experiment 2) was 150 and the “increase in BFU-E colonies formation” value ([2]; RPMI/FBS medium) was “up to 13 times”. For the same molecule, the “increase in the number of CFU-GEMM” value ([2]; RPMI/FBS medium) was “up to 3 times”.

In the case of `O=P1(N(CCCl)CCCl)NCCCO1` (stereo not shown) [CY, cyclophosphamide, reference compound], the “Gross pathological observations” value ([1]; cyclophosphamide (CY) 200 mg/kg i.v. day 0 alone) is reported as “White, almost translucent”.

“GM-CSF: GM-CSF, comparator growth factor used at 1 μg/kg” was tested, and the “bone marrow red cell count” value (bone marrow red cell; [6]) was “significant increase”.

With `CCCCCCCCCC(=O)[O-].[Na+]` [sodium caprate] the “Gross pathological observations” value [1, 3] was “Red”, the “appearance of the femur (bone marrow)” value [1] was “same results” and the “spleen red cell count” value (spleen red cell; intravenous pre-treatment) was “significant increase; also recorded: increases the spleen red cell counts to the baseline level of control mice”. The “spleen red cell count” value (spleen red cell; oral pre-treatment) was “significant increase”, the “bone marrow red cell count” value (bone marrow red cell; in combination with GM-CSF) was “additive increase” and the “bone marrow red cell count” value (bone marrow red cell; [6]) was “significant increase”. For the same molecule, the “number of peripheral blood cell” value (peripheral blood cell) was “significant increase”, the “number of CFU-E” value (bone marrow cells; [7]) was “enhances” and the “number of CFU-GEMM” value (bone marrow cells; [7]) was “enhances”. The CFU-E (bone marrow cells; [8]) was “strong increase”, the CFU-GEMM (bone marrow cells; [8]) was “strong increase” and the CFU-GM (bone marrow cells; [8]) was “strong increase”.

`CCCCCCCC(=O)OCC(COC(=O)CCCCCCC)OC(=O)CCCCCCC` [tricaprylin] was tested, and the “Gross pathological observations” value [1, 3] was “Red”, the “appearance of the femur (bone marrow)” value [1] was “same results” and the “bone marrow proliferation in combination” value (human bone marrow cells; time not stated) was “synergistic increase”. For the same molecule, the “increase in bone marrow proliferation relative to the control” value (human bone marrow cells; human bone marrow cells, RPMI/FBS, 48 and 72 hours, [3H]-thymidine) was 2 fold.

In the case of `CCCCCCCCCC(=O)O` [capric acid], the “Gross pathological observations” value [1, 3] is reported as “Red”, the “appearance of the femur (bone marrow)” value [1] is reported as “same results” and the “spleen red cell count” value (spleen red cell; oral pre-treatment) is reported as “significant increase”.
